Results published in publication PMC8401933 (Molecules, 2021).
Entries after “also recorded” stand apart in the source; their conditions may differ.

Assays:
[1] = tested on: 3T3-L1 cells; assay: Adipocyte differentiation, Oil Red O staining; assay type: cell-based; conditions: for adipogenesis (ORO staining) / lipid accumulation / adipocyte differentiation (ORO staining): stained at day 8; for lipid accumulation / adipocyte differentiation (ORO staining): 3T3-L1, treated during differentiation; for quantity of lipid droplets (ORO staining): CX-4945 5 μM, KD025 3 μM
Description: (§1) The preadipocyte 3T3-L1 cell line was kindly provided by Dr. Hyun-Sung Park (University of Seoul) and cultured in Dulbecco’s modified Eagle’s medium (DMEM, Sigma-Aldrich) supplied with 10% heat-inactivated newborn calf serum (Invitrogen, CA, USA), 100 units/mL penicillin, and 100 µg/mL streptomycin (Cellgro, VA, USA). The cells were maintained in an incubator at 37 °C and 5% CO2. To initiate differentiation, the cells were incubated for additional days after 100% confluence and then further incubated in a medium containing fetal bovine serum (FBS) and a differentiation cocktail (DMI, 1 μM dexamethasone, 0.5 mM 3-isobutyl-1-methylxanthine, and 5 μg/mL insulin) as previously described. In brief, at day 3, the culture medium was replaced with DMEM/10%FBS containing 5 µg/mL insulin. Then, growth medium was changed every 2 days.
Lipid droplets of cells were stained using ORO (Sigma-Aldrich, MA, USA). In brief, the cells were washed with phosphate buffered saline and incubated with 10% formalin for 5 min. The cells were then fixed with the same volume of fresh formalin for at least 1 h. Subsequently, the cells were washed with 60% isopropanol, air dried completely, and then stained with ORO working solution (1% ORO/isopropanol: distilled water = 3:2). The stained cells were washed with water four times. Cell images were taken by a microscope (Nikon Eclipse TS100-F, Japan). Then, 100% isopropanol was added and incubated for 10 min to quantify the intensity of ORO. The quantity of extracted dye was obtained by obtaining absorbance at 540 nm in the Synergy H1 hybrid reader (BioTek, VT, USA).

[2] = tested on: Pparg and Cebpa genes in 3T3-L1 cells; assay: qRT-PCR of adipogenic genes during differentiation; assay type: cell-based; conditions: 3T3-L1 during differentiation; KD025 5 μM, CX-4945 10 μM, Y-27632 10 μM
Description: as §1
Total RNA was extracted using easy-BLUE (iNtRON Biotechnology, Dajeon, Korea) in accordance with the manufacturer’s protocol. cDNA was synthesized from 2 µg of total RNA using TOPscript^TM Drymix Kit (Enzynomics, Dajeon, Korea). qRT-PCR was performed using TB Green ® Premix Ex Taq^TM II (Tli RNAse H Plus) (TaKaRa, Japan) with Applied Biosystems QuantStudio™ 1 Real-Time PCR System (Thermo Fisher Scientific, Waltham, MA, USA). Gene expression data were normalized based on the use of the same amount of total RNA samples. The relative fold change of gene expression was calculated using the ∆Ct method.

[3] = molecular target: ROCK2 (Homo sapiens, UniProt O75116); assay: KINOMEscan Kd determination; conditions: 11-point concentrations, duplicate
Chain of ROCK2 (O75116 whole entry): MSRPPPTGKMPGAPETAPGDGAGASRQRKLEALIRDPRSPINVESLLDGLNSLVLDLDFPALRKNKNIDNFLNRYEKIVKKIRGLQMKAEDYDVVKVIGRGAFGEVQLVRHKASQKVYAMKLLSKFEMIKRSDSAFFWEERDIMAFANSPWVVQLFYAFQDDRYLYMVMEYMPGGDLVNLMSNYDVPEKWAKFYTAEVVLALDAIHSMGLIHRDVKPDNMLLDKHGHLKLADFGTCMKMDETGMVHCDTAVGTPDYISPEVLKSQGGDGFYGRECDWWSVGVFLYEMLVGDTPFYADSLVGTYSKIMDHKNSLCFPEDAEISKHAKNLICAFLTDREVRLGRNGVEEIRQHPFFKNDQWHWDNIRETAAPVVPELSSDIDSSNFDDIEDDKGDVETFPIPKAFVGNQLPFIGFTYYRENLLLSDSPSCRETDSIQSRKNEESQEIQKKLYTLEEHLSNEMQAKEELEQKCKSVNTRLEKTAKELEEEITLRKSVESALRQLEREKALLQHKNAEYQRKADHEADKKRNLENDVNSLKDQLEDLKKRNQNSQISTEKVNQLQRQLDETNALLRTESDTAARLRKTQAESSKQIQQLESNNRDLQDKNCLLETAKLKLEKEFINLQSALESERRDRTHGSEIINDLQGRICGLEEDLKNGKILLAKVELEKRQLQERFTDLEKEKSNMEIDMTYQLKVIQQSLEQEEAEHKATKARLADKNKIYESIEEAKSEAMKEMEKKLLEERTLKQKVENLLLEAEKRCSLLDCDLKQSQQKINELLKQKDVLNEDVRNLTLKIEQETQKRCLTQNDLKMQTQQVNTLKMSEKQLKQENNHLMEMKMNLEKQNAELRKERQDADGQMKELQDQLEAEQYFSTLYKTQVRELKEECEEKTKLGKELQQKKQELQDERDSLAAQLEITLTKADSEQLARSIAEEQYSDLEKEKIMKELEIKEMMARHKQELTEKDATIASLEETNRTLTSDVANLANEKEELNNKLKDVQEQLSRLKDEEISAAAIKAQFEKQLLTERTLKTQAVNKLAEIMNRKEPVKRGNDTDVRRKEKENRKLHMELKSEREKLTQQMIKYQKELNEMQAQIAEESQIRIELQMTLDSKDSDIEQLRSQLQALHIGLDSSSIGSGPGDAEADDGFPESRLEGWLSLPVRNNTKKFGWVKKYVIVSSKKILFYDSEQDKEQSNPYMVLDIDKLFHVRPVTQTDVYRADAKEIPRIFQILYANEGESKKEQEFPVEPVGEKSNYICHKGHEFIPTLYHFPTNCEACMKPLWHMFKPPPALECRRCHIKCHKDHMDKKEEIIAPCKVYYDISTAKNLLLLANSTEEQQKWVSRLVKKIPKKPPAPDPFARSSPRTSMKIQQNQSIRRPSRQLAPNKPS
Description: Dissociation constant (Kd) was measured using KINOMEscan^TM profiling service. […] The binding activity of inhibitors was monitored by measuring remained kinase-ligand binding activity. Kd was calculated based on the nonlinear least-square fit model by using the “drm” function of drc package [54] in R software (version 3.6.1).

## CN(C)c1nc2c(Br)c(Br)c(Br)c(Br)c2[nH]1 [DMAT, 2-dimethylamino-4,5,6,7-tetrabromo-1H-benzimidazole]
[1]; 3T3-L1, 5 μM
  adipogenesis (ORO staining): promoting reversely the differentiation
[1]; 3T3-L1, 30 μM
  adipogenesis (ORO staining): inhibited the adipogenesis
[1]
  lipid accumulation / adipocyte differentiation (ORO staining): inhibited effectively

## C[C@@H](N)[C@H]1CC[C@H](C(=O)Nc2ccncc2)CC1 [Y-27632]
[2]
  expression of Pparg and Cebpa genes: increased; also recorded: did not suppress

## O=C1c2ccc(O)c(O)c2C(=O)c2c(O)ccc(O)c21 [quinalizarin, 1,2,5,8-tetrahydroxyanthraquinone]
[1]; 3T3-L1, 5, 10, and 30 μM
  adipogenesis (ORO staining): suppressed adipogenesis
[1]
  lipid accumulation / adipocyte differentiation (ORO staining): inhibited effectively

## O=C(O)c1ccc2c(c1)nc(Nc1cccc(Cl)c1)c1ccncc12 [CX-4945]
[2]
  expression of Pparg and Cebpa genes: markedly suppressed
[1]
  lipid accumulation / adipocyte differentiation (ORO staining): suppressed the generation of lipid droplets; also recorded: significantly reduced the amount of accumulated fat in a dose-dependent manner
[1]; 3T3-L1, treated during the early (days 0–1) or late (days 5–8) stage
  quantity of lipid droplets (ORO staining): ineffective; also recorded: lesser effect
[1]; 3T3-L1, treated during the intermediate stage (days 1–3)
  quantity of lipid droplets (ORO staining): acted specifically in the middle stage; also recorded: significantly reduced
[3]
  Kd: no selective interaction; also recorded: did not show such cross-reactivity

## O=S(=O)(c1cccc2cnccc12)N1CCCNCC1 [fasudil]
[1]
  lipid accumulation / adipocyte differentiation (ORO staining): does not
[1]; listed as Fasudil
  lipid accumulation / adipocyte differentiation (ORO staining): no significant effect
